How the values were obtained:
[1] = Relative lipophilicity (capacity factor k’) by reversed-phase HPLC; format: physicochemical; settings: methanol-phosphoric acid buffer eluent, pH 2
Description: The relative lipophilicity of 6 was determined as capacity factor k’ (k’ = (tretention - tsolvent) / tsolvent) by reversed-phase HPLC using a methanol-phosphoric acid buffer eluent system at pH 2. […] This method has already been described elsewhere. The capacity factor k’ (k’ = (tretention - tsolvent) / tsolvent) was determined using reversed-phase HPLC and enables different (radio)folates to be compared based on their polarity. The values determined can be used to give hint to the in vivo behavior in terms of the degree of hepatobiliary excretion by comparison with literature examples.

folate receptor = molecular target: T1, folate receptor (Homo sapiens, UniProt P15328); experiment: Displacement assay with [^3H]folic acid on FR-positive human KB cells; format: binding; settings: Cheng-Prusoff equation, assuming Kd of [^3H]folic acid 1 nM
T1 construct: using [^3H]folic acid and human KB cells in cell suspension; endogenous in cells; host or cells: human KB cells
T1 sequence (P15328 25-257): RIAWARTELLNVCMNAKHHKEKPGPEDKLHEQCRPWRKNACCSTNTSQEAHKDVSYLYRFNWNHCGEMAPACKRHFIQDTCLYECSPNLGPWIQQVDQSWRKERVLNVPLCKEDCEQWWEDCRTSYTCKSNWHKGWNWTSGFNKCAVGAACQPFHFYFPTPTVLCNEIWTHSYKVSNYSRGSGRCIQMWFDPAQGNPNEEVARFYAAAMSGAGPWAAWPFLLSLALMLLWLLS
Description: FR-positive human KB cells were kept under folate-deficient conditions to adjust the folate concentration levels to that of the human serum.
Figure 1 Displacement assay. […] Experiments were conducted in triplicate (n = 3).

[2] = In vitro metabolite/stability study in fetal calf serum; format: in vitro ADME; settings: FCS, 37°C, 15, 30, 60 and 90 min
Description: A solution of [^18 F]12 (50 μL, approximately 5 MBq) was incubated with 500 μL of fetal calf serum (FCS) at 37°C and the mixture shaken at 900 rpm. The time points were set between 0 and 90 min using 500 μL of FCS and 50 μL of the radiotracer for each time point. Plasma proteins were precipitated by addition of cold acetonitrile (300 μL), followed by centrifugation (10,000 rpm, 10 min). An aliquot of each time point (15, 30, 60, and 90 min, 100 μL) was injected into the analytical radio-HPLC system for analytics.
The stability of the new radiotracer, [^18 F]12, was evaluated in the presence of FCS. For this purpose, [^18 F]12 was added to FCS and incubated at 37°C. At certain time points (15, 30, 60, and 90 min), aliquots were extracted and proteins removed by precipitation. The integrity of the radiotracer was determined by analytical radio-HPLC.

KB tumor-bearing mice = experiment: In vivo μPET imaging of KB tumor-bearing mice; settings: scan 60 to 90 min p.i., approximately 13 MBq
Description: All animal experiments were approved by the local veterinary department and complied with Swiss and local laws on animal protection. Female CD-1 nude mice (Charles River, Sulzfeld, Germany) were fed with a folate-deficient rodent diet (Harlan Laboratories, Indianapolis, IN, USA). After an acclimatization period of 5 to 7 days, human KB tumor cells (5 × 10^6 cells in 0.1 mL sterile phosphate-buffered saline (PBS)) were inoculated subcutaneously on both shoulders of each mouse. Twelve days later, the animals were intravenously injected with [^18 F]12 (approximately 5 MBq, 100 μL). […] Animals were euthanized at the indicated time points, and selected organs and tissues were collected, weighed, and measured in a γ-counter. The incorporated radioactivity was expressed as percentage injected dose per gram (%ID/g) of tissue. PET/computed tomography (CT) experiments were performed with a dedicated small-animal PET/CT scanner (eXplore Vista PET/CT, Sedecal, Algete, Spain/GE Healthcare). Animals were intravenously injected with [^18 F]12 (approximately 13 MBq, 100 μL). For scanning, mice were anesthetized with isoflurane in an air/oxygen mixture. The PET scans were acquired from 60 to 90 min post-injection (p.i.) followed by a CT. After acquisition, PET data were reconstructed in user-defined time frames, and the fused datasets of PET and CT were analyzed with PMOD software (version 3.4). […]

16-(4-(((2-amino-4-oxo-3,4-dihydropteridin-6-yl)methyl)amino)benzamido)-1-(4-(2-(2-(2-[^18 F]fluoroethoxy)ethoxy)ethoxy)-1H-1,2,3-triazol-1-yl)-13-oxo-3,6,9-trioxa-12-azaheptadecan-17-oic acid [[^18 F]12]
capacity factor k’ [1]: 1.12
Ki (folate receptor): 1.6 nM
stability in fetal calf serum (radio-HPLC) [2]: No degradation or defluorination
tumor visualization in μPET (KB tumor-bearing mice): facilitated visualization of FR-positive tumors on the maximum intensity projection
